Legend:
Format in all cases: biochemical
PI3K alpha = target: T1, PI3K alpha (Homo sapiens, UniProt P42336); experiment: Luciferase-based luminescence assay (KinaseGlo), PI3K alpha enzymatic activity; settings: inhibition of enzymatic activity, 25 μM ATP, read-out: IC50 p110α
T1 construct: purchased Invitrogen Corp., Carlsbad, CA, USA
Protocol: (§1) PI3K catalyzes the conversion of phosphatidylinositol-4,5-bisphosphate (PIP2) and ATP to phosphatidylinositol-3,4,5-trisphosphate (PIP3) and ADP. For all assays, the reaction buffer comprised 50 mM HEPES, pH 7.5, 3 mM MgCl2, 1 mM EGTA, 100 mM NaCl, 0.03% CHAPS and 2 mM DTT. Compounds for testing were dissolved and serially diluted in 100% DMSO (total of 10 concentrations), then diluted 1:25 in reaction buffer.
(§2) PI3K alpha and PI3K delta enzymatic activity was determined by measuring the amount of ATP consumed following the kinase reaction using a luciferase-based luminescence assay (KinaseGlo®, Promega Corp., Madison, WI, USA). PI3K enzyme solutions were prepared by diluting PI3K alpha (Invitrogen Corp., Carlsbad, CA, USA) or PI3K delta (Millipore, Billerica, MA, USA) in reaction buffer, to 4× the final assay concentration (final concentrations of enzymes were 1.65 nM and 6.86 nM for PI3K alpha and PI3K delta, respectively). A substrate solution was prepared by mixing PIP2 and ATP in reaction buffer at 2× the final assay concentration (final concentrations were 50 μM and 25 μM for PIP2 and ATP respectively). 2.5 μL each of the compound and kinase mixtures were added to individual wells of white low volume 384-well assay plates and mixed by shaking. The reactions were started by adding 5 μL of substrate mixture per well and shaking. The assay plates were covered and reactions were allowed to proceed for 1 hour (PI3K alpha) or 2 hours (PI3K delta), after which 10 μL of Kinase Glo® reagent was added. The plates were briefly centrifuged and incubated for 10 minutes, after which luminescence was measured using a FlexStation plate reader (Molecular Devices, Sunnyvale, CA, USA). IC50 values were determined by curve fitting using Graphpad Prism software (Graphpad Software, La Jolla, CA, USA).

PI3K delta = target: T2, PI3K delta (Homo sapiens, UniProt O00329); experiment: Luciferase-based luminescence assay (KinaseGlo), PI3K delta enzymatic activity; settings: for IC50: inhibition of enzymatic activity, KinaseGlo, 25 μM ATP, read-out: IC50 p110δ; for α/δ ratio: ratio of enzymatic IC50 against PI3Kα over IC50 against PI3Kδ; for β/δ ratio / γ/δ ratio: ratio of enzymatic IC50 values, Table 1
T2 construct: purchased Millipore, Billerica, MA, USA
T2 sequence (O00329 whole entry, species assumed): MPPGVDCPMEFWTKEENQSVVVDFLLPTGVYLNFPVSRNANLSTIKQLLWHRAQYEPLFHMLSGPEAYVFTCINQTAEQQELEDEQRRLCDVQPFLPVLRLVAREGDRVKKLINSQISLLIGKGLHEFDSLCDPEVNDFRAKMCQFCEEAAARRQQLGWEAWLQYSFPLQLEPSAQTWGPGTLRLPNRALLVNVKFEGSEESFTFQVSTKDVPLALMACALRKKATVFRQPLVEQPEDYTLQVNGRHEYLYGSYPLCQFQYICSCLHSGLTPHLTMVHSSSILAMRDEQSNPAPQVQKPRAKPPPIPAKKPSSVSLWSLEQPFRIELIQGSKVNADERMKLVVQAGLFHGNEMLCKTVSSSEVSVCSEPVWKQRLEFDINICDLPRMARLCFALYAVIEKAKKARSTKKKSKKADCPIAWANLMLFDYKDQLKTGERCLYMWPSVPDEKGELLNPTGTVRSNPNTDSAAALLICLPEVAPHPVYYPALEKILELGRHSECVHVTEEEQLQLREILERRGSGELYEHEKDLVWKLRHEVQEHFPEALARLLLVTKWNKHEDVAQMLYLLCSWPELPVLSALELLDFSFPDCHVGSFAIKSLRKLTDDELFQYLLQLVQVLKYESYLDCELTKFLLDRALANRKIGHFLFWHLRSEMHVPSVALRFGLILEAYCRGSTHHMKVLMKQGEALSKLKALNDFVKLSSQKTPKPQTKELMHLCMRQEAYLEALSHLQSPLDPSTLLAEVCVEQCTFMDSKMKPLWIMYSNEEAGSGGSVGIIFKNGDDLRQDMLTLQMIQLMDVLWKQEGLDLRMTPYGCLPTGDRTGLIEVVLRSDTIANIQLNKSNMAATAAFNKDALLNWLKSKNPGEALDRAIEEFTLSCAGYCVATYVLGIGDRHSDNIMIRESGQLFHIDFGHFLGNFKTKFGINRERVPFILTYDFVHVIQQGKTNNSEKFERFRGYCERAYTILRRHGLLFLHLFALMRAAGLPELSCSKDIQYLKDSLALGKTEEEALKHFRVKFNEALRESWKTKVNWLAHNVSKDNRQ
T2 sequence (P27986 whole entry partner, species assumed): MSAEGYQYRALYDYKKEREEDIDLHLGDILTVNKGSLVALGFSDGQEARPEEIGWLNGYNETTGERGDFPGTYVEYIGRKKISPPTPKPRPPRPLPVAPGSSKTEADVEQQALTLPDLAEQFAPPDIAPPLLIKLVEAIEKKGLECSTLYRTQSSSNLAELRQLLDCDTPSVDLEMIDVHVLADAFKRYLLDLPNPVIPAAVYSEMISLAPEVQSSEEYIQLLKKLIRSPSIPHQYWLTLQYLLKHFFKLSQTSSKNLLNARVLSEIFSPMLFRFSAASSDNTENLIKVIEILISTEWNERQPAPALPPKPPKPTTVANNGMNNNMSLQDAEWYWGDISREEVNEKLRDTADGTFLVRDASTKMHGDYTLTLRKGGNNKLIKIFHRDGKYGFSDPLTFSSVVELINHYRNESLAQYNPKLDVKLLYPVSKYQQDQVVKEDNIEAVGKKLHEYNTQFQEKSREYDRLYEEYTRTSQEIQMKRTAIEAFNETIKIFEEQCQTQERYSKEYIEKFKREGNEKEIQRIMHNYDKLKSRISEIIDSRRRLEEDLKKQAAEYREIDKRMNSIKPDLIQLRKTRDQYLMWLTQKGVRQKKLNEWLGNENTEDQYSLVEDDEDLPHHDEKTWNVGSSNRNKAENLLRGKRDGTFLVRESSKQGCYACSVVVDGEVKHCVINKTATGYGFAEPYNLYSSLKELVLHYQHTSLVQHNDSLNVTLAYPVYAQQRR
Protocol: as §1, §2

PI3K gamma = target: T3, PI3K gamma (Homo sapiens, UniProt P48736); experiment: Luciferase-based luminescence assay (ADP Glo), PI3K gamma enzymatic activity; settings: inhibition of enzymatic activity, 25 μM ATP, read-out: IC50 p110γ
T3 construct: purchased Invitrogen Corp., Carlsbad, CA, USA
T3 sequence (P48736 whole entry, species assumed): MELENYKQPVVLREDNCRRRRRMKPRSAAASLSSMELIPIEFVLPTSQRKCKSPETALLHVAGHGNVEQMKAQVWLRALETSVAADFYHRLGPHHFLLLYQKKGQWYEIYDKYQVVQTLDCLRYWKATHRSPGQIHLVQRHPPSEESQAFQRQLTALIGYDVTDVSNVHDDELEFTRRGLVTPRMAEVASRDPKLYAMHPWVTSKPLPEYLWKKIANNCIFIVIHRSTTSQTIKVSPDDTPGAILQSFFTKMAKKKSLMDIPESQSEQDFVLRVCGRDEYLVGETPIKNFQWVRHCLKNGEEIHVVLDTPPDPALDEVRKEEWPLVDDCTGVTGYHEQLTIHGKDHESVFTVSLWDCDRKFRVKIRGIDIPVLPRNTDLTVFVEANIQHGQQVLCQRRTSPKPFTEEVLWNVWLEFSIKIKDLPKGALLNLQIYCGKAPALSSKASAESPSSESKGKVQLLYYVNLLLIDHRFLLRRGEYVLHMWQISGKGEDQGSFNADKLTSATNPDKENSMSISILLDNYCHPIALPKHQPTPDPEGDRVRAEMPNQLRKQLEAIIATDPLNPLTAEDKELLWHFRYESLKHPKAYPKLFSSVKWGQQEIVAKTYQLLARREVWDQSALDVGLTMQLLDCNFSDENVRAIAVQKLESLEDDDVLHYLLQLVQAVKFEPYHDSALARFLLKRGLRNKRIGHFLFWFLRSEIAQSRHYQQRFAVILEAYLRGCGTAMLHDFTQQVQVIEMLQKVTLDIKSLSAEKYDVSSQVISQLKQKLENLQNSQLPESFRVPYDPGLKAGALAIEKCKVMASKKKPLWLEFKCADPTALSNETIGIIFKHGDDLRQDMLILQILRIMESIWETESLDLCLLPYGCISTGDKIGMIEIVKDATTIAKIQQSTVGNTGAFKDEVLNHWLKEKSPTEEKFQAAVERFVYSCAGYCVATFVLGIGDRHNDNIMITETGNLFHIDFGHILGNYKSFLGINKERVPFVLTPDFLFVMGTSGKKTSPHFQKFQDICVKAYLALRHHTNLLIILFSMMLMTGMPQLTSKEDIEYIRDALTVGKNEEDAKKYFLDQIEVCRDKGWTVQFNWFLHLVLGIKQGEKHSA
Protocol: as §1
(§3) PI3K beta and gamma enzymatic activity was determined by measuring the amount of ADP produced following the kinase reaction using a luciferase-based luminescence assay (ADP Glo®, Promega Corp., Madison, WI, USA). PI3K enzyme solutions were prepared by diluting PI3K beta (Millipore, Billerica, MA, USA) or PI3K gamma (Invitrogen Corp., Carlsbad, CA, USA) in reaction buffer, to 4× the final assay concentration (final concentrations of enzymes were 4.8 nM and 7.6 nM for PI3K beta and PI3K gamma respectively). A substrate solution was prepared by mixing PIP2 and ATP in reaction buffer at 2× the final assay concentration (final concentrations were 50 μM and 25 μM for PIP2 and ATP respectively). 2.5 μL each of the compound and kinase mixtures were added to individual wells of white low volume 384-well assay plates and mixed by shaking. The reactions were started by adding 5 μL of substrate mixture per well and shaking. The assay plates were covered and reactions were allowed to proceed for 1 hour. Then, 5 μL of reaction mix was transferred to another white low volume 384-well plate, and 5 μL of ADP-Glo™ reagent was added. The plates were briefly centrifuged and incubated for 40 minutes, after which 10 μL of kinase detection buffer was added. The plates then were centrifuged briefly, shaken slowly and equilibrated at room temperature for 30 minutes, after which luminescence was measured using a FlexStation plate reader (Molecular Devices, Sunnyvale, CA, USA). IC50 values were determined by curve fitting using Graphpad Prism software (Graphpad Software, La Jolla, CA, USA).

PI3K beta = target: T4, PI3K beta (Homo sapiens, UniProt P42338); experiment: Luciferase-based luminescence assay (ADP Glo), PI3K beta enzymatic activity; settings: for IC50: inhibition of enzymatic activity, ADP Glo, 25 μM ATP, read-out: IC50 p110β; for α/β ratio: ratio of enzymatic IC50 values, Table 1
T4 construct: purchased Millipore, Billerica, MA, USA
T4 sequence (P42338 whole entry, species assumed): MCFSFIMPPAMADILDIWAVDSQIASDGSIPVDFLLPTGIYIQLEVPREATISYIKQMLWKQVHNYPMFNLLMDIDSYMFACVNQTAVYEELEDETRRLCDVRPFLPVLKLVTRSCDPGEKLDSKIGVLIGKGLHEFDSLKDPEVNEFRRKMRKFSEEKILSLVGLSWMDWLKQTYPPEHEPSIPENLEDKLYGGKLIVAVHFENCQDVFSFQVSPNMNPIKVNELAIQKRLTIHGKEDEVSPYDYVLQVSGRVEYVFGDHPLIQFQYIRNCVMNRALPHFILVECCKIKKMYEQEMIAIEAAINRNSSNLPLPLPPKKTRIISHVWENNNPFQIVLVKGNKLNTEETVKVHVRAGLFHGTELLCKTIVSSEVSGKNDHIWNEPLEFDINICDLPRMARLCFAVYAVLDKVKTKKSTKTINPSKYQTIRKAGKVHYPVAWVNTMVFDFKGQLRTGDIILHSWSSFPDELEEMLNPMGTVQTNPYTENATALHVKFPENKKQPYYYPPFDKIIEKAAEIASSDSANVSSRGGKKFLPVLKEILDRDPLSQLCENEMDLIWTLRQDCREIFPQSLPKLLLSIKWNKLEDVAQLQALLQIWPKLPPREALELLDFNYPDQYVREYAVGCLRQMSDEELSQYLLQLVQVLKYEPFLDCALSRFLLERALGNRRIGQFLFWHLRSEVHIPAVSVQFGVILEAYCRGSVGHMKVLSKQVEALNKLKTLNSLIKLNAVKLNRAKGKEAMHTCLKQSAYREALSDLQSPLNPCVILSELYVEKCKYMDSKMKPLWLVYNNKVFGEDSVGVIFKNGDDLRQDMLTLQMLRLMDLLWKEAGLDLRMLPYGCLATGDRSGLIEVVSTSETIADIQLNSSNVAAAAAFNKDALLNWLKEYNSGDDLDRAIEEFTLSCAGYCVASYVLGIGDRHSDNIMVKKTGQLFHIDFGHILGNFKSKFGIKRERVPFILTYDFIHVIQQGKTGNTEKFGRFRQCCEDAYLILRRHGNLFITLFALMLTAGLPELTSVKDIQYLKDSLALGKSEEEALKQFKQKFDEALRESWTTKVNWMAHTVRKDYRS
T4 sequence (P27986 whole entry partner, species assumed): as the sequence (P27986 whole entry partner, species assumed) above
Protocol: as §1, §3

mTOR = mTOR (Homo sapiens, UniProt P42345); experiment: mTOR inhibition (Table 1); settings: Table 1, no method described

T1 sequence (P42336 whole entry, species assumed): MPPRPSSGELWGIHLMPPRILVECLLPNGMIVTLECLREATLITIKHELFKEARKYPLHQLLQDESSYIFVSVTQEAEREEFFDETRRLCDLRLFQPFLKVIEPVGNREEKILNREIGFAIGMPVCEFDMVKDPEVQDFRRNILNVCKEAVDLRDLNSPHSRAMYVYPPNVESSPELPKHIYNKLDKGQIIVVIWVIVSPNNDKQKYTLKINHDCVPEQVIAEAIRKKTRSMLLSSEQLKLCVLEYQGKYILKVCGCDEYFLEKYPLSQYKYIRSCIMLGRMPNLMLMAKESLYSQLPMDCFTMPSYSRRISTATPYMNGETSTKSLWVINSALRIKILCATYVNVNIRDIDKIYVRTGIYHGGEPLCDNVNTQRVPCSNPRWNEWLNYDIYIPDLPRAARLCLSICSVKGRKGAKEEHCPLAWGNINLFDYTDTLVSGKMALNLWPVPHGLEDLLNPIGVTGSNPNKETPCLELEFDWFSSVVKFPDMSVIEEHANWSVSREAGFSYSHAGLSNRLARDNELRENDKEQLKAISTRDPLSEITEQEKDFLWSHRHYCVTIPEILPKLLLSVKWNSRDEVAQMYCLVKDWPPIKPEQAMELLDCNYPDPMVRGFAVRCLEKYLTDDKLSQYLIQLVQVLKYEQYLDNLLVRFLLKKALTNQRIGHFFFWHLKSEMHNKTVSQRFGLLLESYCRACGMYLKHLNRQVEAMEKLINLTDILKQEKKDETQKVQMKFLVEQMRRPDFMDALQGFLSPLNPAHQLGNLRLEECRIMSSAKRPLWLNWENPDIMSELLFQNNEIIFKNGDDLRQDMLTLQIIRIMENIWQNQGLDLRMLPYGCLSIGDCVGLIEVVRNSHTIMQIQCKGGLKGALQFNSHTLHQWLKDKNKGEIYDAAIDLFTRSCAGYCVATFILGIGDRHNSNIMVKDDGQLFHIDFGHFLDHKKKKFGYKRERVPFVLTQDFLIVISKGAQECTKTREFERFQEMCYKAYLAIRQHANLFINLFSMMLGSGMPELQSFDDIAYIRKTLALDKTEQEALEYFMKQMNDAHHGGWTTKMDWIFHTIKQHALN
T1 sequence (P27986 whole entry partner, species assumed): as the sequence (P27986 whole entry partner, species assumed) above

IC50 (PI3K alpha) [nM]	IC50 (PI3K delta) [nM]	α/δ ratio (PI3K delta)	IC50 (PI3K gamma) [nM]	IC50 (PI3K beta) [nM]	α/β ratio (PI3K beta)	β/δ ratio (PI3K delta)	γ/δ ratio (PI3K delta)	IC50 (mTOR) [nM]	Compound
> 500	> 500	D’	–	–	–	–	–	–	COc1ccc(C(C)(C)Nc2nc(N3CCOCC3)nc(-n3c(C(F)F)nc4ccccc43)n2)cc1 [Compound A9, 4-(2-(difluoromethyl)-1H-benzo[d]imidazol-1-yl)-N-(2-(4-methoxyphenyl)propan-2-yl)-6-morpholino-1,3,5-triazin-2-amine]
> 500	200 to 500	C’	> 500	> 500	D’	A’	D’	> 500	CC(C)(CNc1nc(N2CCOCC2)nc(-n2c(C(F)F)nc3ccccc32)n1)c1ccccc1 [Compound A29, 4-(2-(difluoromethyl)-1H-benzo[d]imidazol-1-yl)-N-(2-methyl-2-phenylpropyl)-6-morpholino-1,3,5-triazin-2-amine]
> 500	> 500	A’	–	–	–	–	–	–	CC(C)(Nc1nc(N2CCOCC2)nc(-n2c(C(F)F)nc3ccccc32)n1)c1ccc2ccccc2c1 [Compound A13, 4-(2-(difluoromethyl)-1H-benzo[d]imidazol-1-yl)-6-morpholino-N-(2-(naphthalen-2-yl)propan-2-yl)-1,3,5-triazin-2-amine]
200 to 500	100 to 200	D’	100 to 200	≤ 100	C’	D’	D’	> 500	CC(C)(Cc1ccc2ccccc2c1)Nc1nc(N2CCOCC2)nc(-n2c(C(F)F)nc3ccccc32)n1 [Compound A26, 4-(2-(difluoromethyl)-1H-benzo[d]imidazol-1-yl)-N-(2-methyl-1-(naphthalen-2-yl)propan-2-yl)-6-morpholino-1,3,5-triazin-2-amine]
100 to 200	100 to 200	D’	–	–	–	–	–	–	FC(F)c1nc2ccccc2n1-c1nc(NCc2ccccc2)nc(N2CCOCC2)n1 [Ref 1, N-benzyl-4-(2-(difluoromethyl)-1H-benzo[d]imidazol-1-yl)-6-morpholino-1,3,5-triazin-2-amine, reference compound]
> 500	100 to 200	C’	200 to 500	> 500	D’	A’	D’	> 500	CC(C)(Nc1nc(N2CCOCC2)nc(-n2c(C(F)F)nc3ccccc32)n1)c1ccccc1 [Compound A7, 4-(2-(difluoromethyl)-1H-benzo[d]imidazol-1-yl)-6-morpholino-N-(2-phenylpropan-2-yl)-1,3,5-triazin-2-amine]
200 to 500	≤ 100	D’	–	–	–	–	–	–	COC(=O)[C@H](Nc1nc(N2CCOCC2)nc(-n2c(C(F)F)nc3ccccc32)n1)c1ccccc1 [Compound A11, (R)-methyl 2-((4-(2-(difluoromethyl)-1H-benzo[d]imidazol-1-yl)-6-morpholino-1,3,5-triazin-2-yl)amino)-2-phenylacetate]
> 500	> 500	D’	–	–	–	–	–	–	C[C@@H](Nc1nc(N2CCOCC2)nc(-n2c(C(F)F)nc3ccccc32)n1)c1ccccc1 [Compound A3, (R)-4-(2-(difluoromethyl)-1H-benzo[d]imidazol-1-yl)-6-morpholino-N-(1-phenylethyl)-1,3,5-triazin-2-amine]
> 500	100 to 200	A’	> 500	100 to 200	A’	D’	C’	> 500	CC(C)(Cc1cccc(Cl)c1)Nc1nc(N2CCOCC2)nc(-n2c(C(F)F)nc3ccccc32)n1 [Compound A20, N-(1-(3-chlorophenyl)-2-methylpropan-2-yl)-4-(2-(difluoromethyl)-1H-benzo[d]imidazol-1-yl)-6-morpholino-1,3,5-triazin-2-amine]
> 500	> 500	C’	–	–	–	–	–	–	CC(C)(Nc1nc(N2CCOCC2)nc(-n2c(C(F)F)nc3ccccc32)n1)c1ccc(Cl)cc1 [Compound A8, N-(2-(4-chlorophenyl)propan-2-yl)-4-(2-(difluoromethyl)-1H-benzo[d]imidazol-1-yl)-6-morpholino-1,3,5-triazin-2-amine]
200 to 500	≤ 100	A’	> 500	100 to 200	D’	B’	A’	> 500	CC(C)(Cc1ccccc1-c1ccccc1)Nc1nc(N2CCOCC2)nc(-n2c(C(F)F)nc3ccccc32)n1 [Compound A47, 4-(2-(difluoromethyl)-1H-benzo[d]imidazol-1-yl)-N-(1-(biphenyl-2-yl)-2-methylpropan-2-yl)-6-morpholino-1,3,5-triazin-2-amine]
> 500	≤ 100	C’	–	–	–	–	–	–	CC(Nc1nc(N2CCOCC2)nc(-n2c(C(F)F)nc3ccccc32)n1)c1ccccc1 (centres unmarked) [Compound A1, 4-(2-(difluoromethyl)-1H-benzo[d]imidazol-1-yl)-6-morpholino-N-(1-phenylethyl)-1,3,5-triazin-2-amine]
> 500	100 to 200	A’	> 500	200 to 500	B’	D’	D’	> 500	CC(C)(Nc1nc(N2CCOCC2)nc(-n2c(C(F)F)nc3ccccc32)n1)C1(c2ccccc2)CC1 [Compound A30, 4-(2-(difluoromethyl)-1H-benzo[d]imidazol-1-yl)-N-(2-(1-phenylcyclopropyl)propan-2-yl)-6-morpholino-1,3,5-triazin-2-amine]
> 500	200 to 500	D’	–	–	–	–	–	–	COC(=O)[C@@H](Nc1nc(N2CCOCC2)nc(-n2c(C(F)F)nc3ccccc32)n1)c1ccccc1 [Compound A12, (S)-methyl 2-((4-(2-(difluoromethyl)-1H-benzo[d]imidazol-1-yl)-6-morpholino-1,3,5-triazin-2-yl)amino)-2-phenylacetate]
> 500	> 500	B’	–	–	–	–	–	–	CC[C@@H](Nc1nc(N2CCOCC2)nc(-n2c(C(F)F)nc3ccccc32)n1)c1ccccc1 [Compound A6, (R)-4-(2-(difluoromethyl)-1H-benzo[d]imidazol-1-yl)-6-morpholino-N-(1-phenylpropyl)-1,3,5-triazin-2-amine]
> 500	–	–	–	–	–	–	–	> 500	CC(C)(Cc1ccccc1Br)Nc1nc(N2CCOCC2)nc(-n2c(C(F)F)nc3ccccc32)n1 [Compound A17, 4-(2-(difluoromethyl)-1H-benzo[d]imidazol-1-yl)-N-(1-(2-bromophenyl)-2-methylpropan-2-yl)-6-morpholino-1,3,5-triazin-2-amine]
> 500	200 to 500	C’	100 to 200	> 500	D’	C’	D’	> 500	CC[C@H](Nc1nc(N2CCOCC2)nc(-n2c(C(F)F)nc3ccccc32)n1)c1ccccc1 [Compound A5, (S)-4-(2-(difluoromethyl)-1H-benzo[d]imidazol-1-yl)-6-morpholino-N-(1-phenylpropyl)-1,3,5-triazin-2-amine]

From patent US12059422B2 (MEI Pharma, Inc., priority 2011, dated 2024)
